Activity calls are given as the source filed them. The rule behind the calls is not given here.
Assays:
PC-9 [1] = assay: Induction of cell cycle arrest in human PC-9 cells assessed as increase in cell accumulation at G1 phase at 0.5 to 2 uM incubated for 24 hrs by propidium iodide staining based flow cytometry; format: functional; settings: dose 0.5-2 µM
[2] = system: E3 ubiquitin-protein ligase RNF149/Epidermal growth factor receptor (Homo sapiens), P00533+Q8NC42 [UNDEFINED MUTATION]; assay: SiHyT-mediated degrader activity at RNF149/EGFR mutant in human HCC827 cells assessed as induction of EGFR degradation by measuring decrease in EGFR expression level at 1 uM pretreated with proteasome inhibitor, MG-132 for 4 hrs followed by incubation with compound for 24 hrs by western blot analysis; format: cell-based
Sequence of E3 ubiquitin-protein ligase RNF149/Epidermal growth factor receptor (Homo sapiens), P00533+Q8NC42 [UNDEFINED MUTATION] (P00533 whole entry, looked up, change not shown): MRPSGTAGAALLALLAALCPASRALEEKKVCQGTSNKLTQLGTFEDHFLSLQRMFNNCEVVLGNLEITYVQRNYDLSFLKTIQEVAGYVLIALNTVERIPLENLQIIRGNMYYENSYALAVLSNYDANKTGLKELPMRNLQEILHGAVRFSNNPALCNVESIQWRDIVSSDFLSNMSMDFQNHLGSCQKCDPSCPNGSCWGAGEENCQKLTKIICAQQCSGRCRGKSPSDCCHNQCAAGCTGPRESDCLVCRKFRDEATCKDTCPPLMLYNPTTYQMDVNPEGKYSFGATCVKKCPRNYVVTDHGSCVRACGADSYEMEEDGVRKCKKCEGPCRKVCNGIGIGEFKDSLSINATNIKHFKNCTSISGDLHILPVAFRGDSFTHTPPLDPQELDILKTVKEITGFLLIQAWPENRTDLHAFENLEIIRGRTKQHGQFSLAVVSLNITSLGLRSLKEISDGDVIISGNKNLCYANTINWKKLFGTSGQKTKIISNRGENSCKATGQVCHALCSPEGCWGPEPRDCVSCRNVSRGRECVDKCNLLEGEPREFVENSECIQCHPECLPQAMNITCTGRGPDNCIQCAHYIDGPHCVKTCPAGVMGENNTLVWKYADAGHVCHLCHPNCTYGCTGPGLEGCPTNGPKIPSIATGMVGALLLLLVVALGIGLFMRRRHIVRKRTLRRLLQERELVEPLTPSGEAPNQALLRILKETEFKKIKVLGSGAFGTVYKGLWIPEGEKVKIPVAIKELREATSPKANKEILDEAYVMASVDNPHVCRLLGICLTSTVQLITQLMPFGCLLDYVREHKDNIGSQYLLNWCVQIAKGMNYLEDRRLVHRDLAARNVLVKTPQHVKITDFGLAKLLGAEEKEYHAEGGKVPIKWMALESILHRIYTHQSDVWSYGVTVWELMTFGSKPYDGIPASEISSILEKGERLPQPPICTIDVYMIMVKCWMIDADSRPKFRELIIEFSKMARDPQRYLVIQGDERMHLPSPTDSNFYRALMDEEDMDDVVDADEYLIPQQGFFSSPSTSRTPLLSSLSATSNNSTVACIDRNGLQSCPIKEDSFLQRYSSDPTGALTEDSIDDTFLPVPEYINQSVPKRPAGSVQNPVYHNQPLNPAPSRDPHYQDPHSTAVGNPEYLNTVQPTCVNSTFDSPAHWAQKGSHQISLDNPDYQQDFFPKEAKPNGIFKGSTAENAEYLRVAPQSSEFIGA
Sequence of E3 ubiquitin-protein ligase RNF149/Epidermal growth factor receptor (Homo sapiens), P00533+Q8NC42 [UNDEFINED MUTATION] (Q8NC42 whole entry, looked up, change not shown): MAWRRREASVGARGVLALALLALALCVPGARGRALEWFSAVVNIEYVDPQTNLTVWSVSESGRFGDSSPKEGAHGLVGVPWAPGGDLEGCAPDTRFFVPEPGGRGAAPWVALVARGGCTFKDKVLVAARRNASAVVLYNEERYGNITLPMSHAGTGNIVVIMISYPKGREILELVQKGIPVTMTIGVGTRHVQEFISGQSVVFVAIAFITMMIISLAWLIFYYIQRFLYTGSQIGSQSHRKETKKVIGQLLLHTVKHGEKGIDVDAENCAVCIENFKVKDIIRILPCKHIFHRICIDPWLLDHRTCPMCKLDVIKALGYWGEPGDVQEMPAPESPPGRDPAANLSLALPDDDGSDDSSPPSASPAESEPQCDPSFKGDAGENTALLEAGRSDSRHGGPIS

[3] = Half life in ICR mouse at 10 mg/kg, po by LC-MS/MS analysis; format: ADME, organism-based; settings: in vivo
[4] = (§1) SiHyT-mediated degrader activity at RNF149/EGFR mutant in human PC-9 cells assessed as induction of EGFR degradation cells incubated in serum-free media for 8 hrs followed by incubation with compound for 24 hrs by western blot analysis; format: cell-based
PC-9 [5] = assay: as §1; format: cell-based
[6] = system: E3 ubiquitin-protein ligase RNF149/Epidermal growth factor receptor (Homo sapiens), P00533+Q8NC42 [UNDEFINED MUTATION]; assay: SiHyT-mediated degrader activity at RNF149/EGFR mutant in human HCC827 cells assessed as induction of EGFR degradation by measuring decrease in EGFR expression level at 1 uM pretreated with lysosome inhibitor, 3-MA for 4 hrs followed by incubation with compound for 24 hrs by western blot analysis; format: cell-based
[7] = Half life of the compound in mouse liver microsomes at 1 uM in presence of NADPH by LC-MS/MS analysis; format: ADME, Microsome
PC-9 [8] = assay: Binding affinity to RNF149/EGFR mutant in human PC-9 cells at 2 uM incubated for 4 hrs by CETSA analysis; format: cell-based
PC-9 [9] = assay: Induction of interaction between RNF149/EGFR mutant in human PC-9 cells assessed as disruption of EGFR mutant/HSP90 complex formation at 2 uM measured after 6 hrs by co-immunoprecipitation analysis; format: cell-based
PC-9 [10] = assay: SiHyT-mediated degrader activity at RNF149/EGFR mutant in human PC-9 cells assessed as increase in EGFR ubiquitination level at 2 uM pretreated with MG132 for 2 hrs followed by incubation with compound for 9 hrs by immunoprecipitation based western blot analysis; format: cell-based
PC-9 [11] = assay: SiHyT-mediated degrader activity at RNF149/EGFR mutant in human PC-9 cells assessed as induction of EGFR degradation at 1 uM in presence of HSP90 inhibitor, geldanamycin by western blot analysis; format: cell-based
HCC827 [12] = assay: Inhibition of colony formation in human HCC827 cells assessed as inhibition of malignant clonal growth at 0.5 to 1 uM measured after 7 days by crystal violet staining based analysis; format: functional, cell-based; settings: dose 0.5-1 µM, time 7.0 day
HCC827 [13] = assay: Induction of cell cycle arrest in human HCC827 cells assessed as increase in cell accumulation at G1 phase at 0.5 to 2 uM incubated for 24 hrs by propidium iodide staining based flow cytometry; format: functional; settings: dose 0.5-2 µM
[14] = Toxicity in mouse assessed as pathological changes in lungs administered for 14 days by Hematoxylin-Eosin staining based analysis; settings: in vivo, 336 h, time 14 day
[15] = Half life in ICR mouse at 1 mg/kg, iv by LC-MS/MS analysis; format: ADME, organism-based; settings: in vivo
[16] = Tmax in ICR mouse at 10 mg/kg, po by LC-MS/MS analysis; format: ADME, organism-based; settings: in vivo
PC-9 [17] = assay: SiHyT-mediated degrader activity at RNF149/EGFR mutant in human PC-9 cells assessed as induction of EGFR degradation by measuring EGFR expression level at 2 uM incubated for 24 hrs followed by drug wash-out and measured after 24 hrs by western blot analysis; format: cell-based
[18] = Cmax in ICR mouse at 10 mg/kg, po by LC-MS/MS analysis; format: ADME, organism-based; settings: in vivo
[19] = Oral bioavailability in ICR mouse at 10 mg/kg by LC-MS/MS analysis; format: ADME, organism-based; settings: in vivo
PC-9 [20] = assay: SiHyT-mediated degrader activity at RNF149/EGFR mutant in human PC-9 cells assessed as induction of EGFR degradation by measuring decrease in EGFR level at 2 uM measured after 24 hrs by western blot analysis; format: cell-based
[21] = system: E3 ubiquitin-protein ligase RNF149/Epidermal growth factor receptor (Homo sapiens), P00533+Q8NC42 [UNDEFINED MUTATION]; assay: SiHyT-mediated degrader activity at RNF149/EGFR mutant in human HCC827 cells assessed as induction of EGFR degradation at 1 uM cells incubated in serum-free media for 8 hrs followed by incubation with compound for 24 hrs by western blot analysis; format: cell-based
[22] = system: E3 ubiquitin-protein ligase RNF149/Epidermal growth factor receptor (Homo sapiens), P00533+Q8NC42 [UNDEFINED MUTATION]; assay: SiHyT-mediated degrader activity at RNF149/EGFR mutant in human HCC827 cells assessed as induction of EGFR degradation by measuring decrease in half-time of EGFR at 1 uM incubated for 6 to 24 hrs in presence of protein synthesis inhibitor, cycloheximide by western blot analysis; format: cell-based; settings: time 6-24 hrs
PC-9 [23] = assay: SiHyT-mediated degrader activity at RNF149/EGFR mutant in human PC-9 cells assessed as induction of EGFR degradation by measuring decrease in half-time of EGFR at 2 uM incubated for 6 to 24 hrs in presence of protein synthesis inhibitor, cycloheximide by western blot analysis; format: cell-based; settings: time 6-24 hrs
PC-9 [24] = assay: Inhibition of cell invasion in human PC-9 cells at 0.5 to 1 uM incubated for 24 hrs by wound healing analysis; format: functional, cell-based; settings: dose 0.5-1 µM
[25] = system: E3 ubiquitin-protein ligase RNF149/Epidermal growth factor receptor (Homo sapiens), P00533+Q8NC42 [UNDEFINED MUTATION]; assay: SiHyT-mediated degrader activity at RNF149/EGFR mutant in human HCC827 cells assessed as induction of EGFR degradation by measuring decrease in EGFR expression level at 1 uM pretreated with E1 ligase inhibitor, PYR41 for 4 hrs followed by incubation with compound for 24 hrs by western blot analysis; format: cell-based
[26] = AUC in ICR mouse at 10 mg/kg, po by LC-MS/MS analysis; format: ADME, organism-based; settings: in vivo
[27] = Toxicity in mouse assessed as pathological changes in heart administered for 14 days by Hematoxylin-Eosin staining based analysis; format: tissue-based; settings: in vivo, 336 h, time 14 day
[28] = Intrinsic clearance of the compound in human liver microsomes at 1 uM in presence of NADPH by LC-MS/MS analysis; format: ADME, Microsome; settings: read-out: CLH
[29] = system: E3 ubiquitin-protein ligase RNF149/Epidermal growth factor receptor (Homo sapiens), P00533+Q8NC42 [UNDEFINED MUTATION]; assay: SiHyT-mediated degrader activity at […] mutant in human HCC827 cells assessed as decrease in EGFR expression level at 2 uM measured after 12 hrs by proteomics analysis; format: cell-based
PC-9 [30] = assay: Induction of interaction between RNF149/EGFR mutant in human PC-9 cells assessed as disruption of EGFR mutant/HSP70 complex formation at 2 uM measured after 6 hrs by co-immunoprecipitation analysis; format: cell-based
MCF-10A = assay: Cytotoxicity against human MCF-10A cells assessed as reduction in cell viability; format: toxicity, cell-based
Mus musculus = assay: In vivo induction of EGFR mutant degradation in tumor of mouse xenografted with human PC-9 cells assessed as decrease in EGFR expression at 10 mg/kg, po measured after 6 to 48 hrs by immunoblot analysis; format: functional, organism-based; settings: time 6-48 hrs
[31] = Toxicity in mouse assessed as pathological changes in spleen administered for 14 days by Hematoxylin-Eosin staining based analysis; format: tissue-based; settings: in vivo, 336 h, time 14 day
[32] = system: E3 ubiquitin-protein ligase RNF149/Epidermal growth factor receptor (Homo sapiens), P00533+Q8NC42 [UNDEFINED MUTATION]; assay: SiHyT-mediated degrader activity at RNF149/EGFR mutant in human HCC827 cells assessed as induction of EGFR degradation by measuring decrease in EGFR level at 1 uM measured after 24 hrs by western blot analysis; format: cell-based

## COc1cc2ncnc(Nc3ccc(F)c(Cl)c3)c2cc1OCCn1cc(CCCO[Si](c2ccccc2)(c2ccccc2)C(C)(C)C)nn1
PC-9 [1]
  Activity: Dose-dependent-effect
[2]
  Activity: inactive
[3]
  half-life: 1.29 h
[4]
  DC50: 1420 nM
PC-9 [5]
  Activity: Dose-dependent-effect
[6]
  Activity: Active
[7]
  half-life at 1 µM: > 1 h
PC-9 [8]
  Activity: Active
PC-9 [9]
  Activity: Active
PC-9 [10]
  Activity: Active
PC-9 [11]
  Activity: Active
HCC827 [12]
  inhibition: Active
HCC827 [13]
  Activity: Dose-dependent-effect
[14]
  Activity: Non-toxic
[15]
  half-life: 2.18 h
[16]
  Tmax: 1 h
PC-9 [17]
  Activity: inactive
[18]
  Cmax: 683 ng/mL
[19]
  bioavailability: 8.67%
PC-9 [20]
  Activity: Active
[21]
  Activity: 87.2%
[22]
  Activity: Active
PC-9 [23]
  Activity: Active
PC-9 [24]
  inhibition: Active
[25]
  Activity: inactive
[26]
  AUC: 1876.65 ng·mL·h
[27]
  Activity: Non-toxic
[28]
  CLint scaled at 1 µM: 9.3 mL/min/kg
[29]
  Activity: Active
PC-9 [30]
  Activity: inactive
MCF-10A
  Activity: Toxic
Mus musculus
  Activity: Active
[31]
  Activity: Non-toxic
[32]
  Activity: Active
